Test results taken from patent US8404665B2, “In vivo use of glutathione S-transferase activated nitric oxide donors” (University of Utah Research Foundation, priority 2002, dated 2013).
Like-named read-outs stand apart in the source and are kept apart here.

Tests used:
[1] = test system: Meth A; assay: Meth A solid tumor cell growth; assay type: cell-based
Protocol: (§1) Cell Lines and Culture Conditions. HL-60, DLD1, and U937 cells were obtained from ATCC (Rockville, Md.). Meth A cells were from Dr. Wolfram Samlowski (University of Utah, Salt Lake City, Utah). The PPC-1 cell line was provided by Dr. Graeme Bolger (University of Alabama, Birmingham, Ala.). For the cell growth and apoptosis experiments, cells were cultured at a density of 150,000 cells/ml in RPMI-1640 with 10% fetal bovine serum at 37° C. in a 5% CO2 humidified atmosphere. Agents were added at the indicated concentrations 24 h after culture initiation. At the indicated time intervals, cells were harvested and washed twice in phosphate buffered saline (PBS) prior to processing for analysis of growth, differentiation, and apoptosis.
(§2) Cell Growth, Differentiation and Apoptosis Assays. The number of viable cells was determined using the MTT assay according to the manufacturer's protocol (Promega, Madison, Wis.) or using a Coulter counter. […] The assay is useful in calorimetric quantitation of cell viability and proliferation. In contrast, cell differentiation was evaluated using Wright and Non-Specific Esterase (NSE) staining of cells collected on microscope slides by cytospin as previously described (Magrinat, G. et al. (1992) Blood 80: 1880-1884). […]

[2] = test system: U937 cells; assay: U937 leukemia cell growth; assay type: cell-based, human
Protocol: as §1, with “At the indicated time intervals, cells were harvested and washed twice in phosphate buffered saline (PBS) prior to processing for analysis of growth, differentiation, and apoptosis.” left out
as §2
The antiproliferative effects in the human AML (Acute Myeloid Leukemia) cell lines, HL-60 (myeloid leukemia) and U937 (monoblastic leukemia) cells were treated with JS-K for a period of 3 days, upon which cell growth was evaluated using a Coulter counter (CITY, STATE). […]

[3] = test system: HL-60 cells; assay: Apoptosis in HL-60 cells by flow cytometry (sub-G0 fraction); assay type: cell-based, human; conditions: for percentage of apoptotic cells (sub-G0 fraction): three days post-addition, control 7 percent
Protocol: as §1
Cell Growth, Differentiation and Apoptosis Assays. The number of viable cells was determined using the MTT assay according to the manufacturer's protocol (Promega, Madison, Wis.) or using a Coulter counter. Briefly, a MTT assay is an analytical technique that uses the dye dimethylthiazolyl-diphenyltetrazolium (MTT) which turns from yellow to brownish-purple as it is reduced in the mitochondria of living cells. The assay is useful in calorimetric quantitation of cell viability and proliferation. In contrast, cell differentiation was evaluated using Wright and Non-Specific Esterase (NSE) staining of cells collected on microscope slides by cytospin as previously described (Magrinat, G. et al. (1992) Blood 80: 1880-1884). Apoptosis was assayed by flow cytometry and by determining DNA fragmentation using agarose gel electrophoresis as previously described (Shami, P. J. et al. (1998) Leukemia 12: 1461-1466). For the flow cytometry assay, we used the propidium iodide staining method of Nicoletti et al. (Nicoletti, I. et al. (1991) J. Immunol. Methods 139: 271-279).
To determine if JS-K could induce apoptosis in leukemia cells, it was added to HL-60 cells at concentrations of 0.5 and 1.0 μM. Three days post-addition, the percentage of apoptotic cells was determined by measuring the number of cells in the sub-G0 fraction of the cell cycle using flow cytometry. […]

[4] = test system: HL-60 cells; assay: NO generation (nitrate and nitrite) by HL-60 cells in serum-free PBS; assay type: cell-based, human
Protocol: Production of NO was then determined by measuring levels of nitrate and nitrite, byproducts of NO oxidation. Serum-free buffer was used to eliminate the confounding effects of nitrates in the serum or medium. When added to HL-60 cells suspended in serum-free phosphate buffered saline (PBS) buffer at a concentration of 10 μM, JS-K appeared to generate NO in a time-dependent fashion with peak levels at 24 hours. […] For this, JS-K was added to HL-60 cells suspended in serum-free PBS at a concentration of 20 μM and nitrate+nitrite levels in the supernatants were determined 24 hours post-addition.

[5] = test system: rabbit thoracic aorta; assay: Rabbit aortic rings bioassay of NO activity (vasorelaxation)
Source text: Preparation of Rabbit Aortic Rings for Bioassay of NO Activity. The preparation of rabbit aortic rings was similar to that described previously (Jia L and Furchgott R F (1993) J Pharmnacol Exp Ther 267: 371-378.), and the animal protocol was approved by the Institutional Animal Care and Use Committee. Briefly, a male New Zealand rabbit was anesthetized by an intravenous injection of sodium pentobarbital into a marginal ear vein. The descending thoracic aorta was quickly removed. The aortic rings (2 mm in length) were prepared and mounted in 20 ml of Krebs' solution (bubbled with 95% O2/5% CO2, 37° C.) in organ chambers. […] Rings were allowed to equilibrate for at least 90 min before experiments were initiated. Basal tension was maintained at approximately 3 g. To allow studies on relaxation, each ring was precontracted submaximally by addition of 50-100 nM phenylephine to the bathing solution. When the contraction had reached a steady state, JS-K was added successively to the bathing solution until the maximal relaxation was obtained. Hb and ODQ were also added to the bathing solution to investigate the mechanisms of action of JS-K.
The ability of JS-K to function as a NO donor was examined in the rabbit thoracic aorta model. […]

[6] = test system: HL-60 cells; assay: Systemic leukemia model: NOD/SCID mice injected intravenously with HL-60 cells; assay type: in vivo
Protocol: A second experiment was conducted with NOD/SCID mice injected intravenously with HL-60 cells. Control mice appeared to develop systemic disease as evidenced by large abdominal lymph nodes and leukemia cell engraftment in the liver, spleen and bone marrow. Treated mice were administered 1 μmol/kg intravenous JS-K for three to four weeks beginning one day after inoculation. Control mice were treated with vehicle. A human-specific anti-CD15 antibody was utilized in flow cytometric analysis to identify the leukemic cells. […] Additionally, the number and size of enlarged abdominal lymph nodes appeared to be smaller in these animals.

[7] = 1 μmol/kg intravenous for three to four weeks, versus controls

For `CCOC(=O)N1CCN(/[N+]([O-])=N/Oc2ccc([N+](=O)[O-])cc2[N+](=O)[O-])CC1` [JS-K, O^2-(2,4-dinitrophenyl) 1-[(4-ethoxycarbonyl)piperazin-1-yl]diazen-1-ium-1,2-diolate], the “IC50 relative to leukemia lines” value [1] was “an order of magnitude greater than those for the two leukemia lines”, the IC50 ([2]; U937 (monocytic leukemia) cells, read-out: IC50, growth) was 300 nM and the IC50 ([2]; U937, 3 days, Coulter counter, read-out: IC50, cell growth) was 330 nM. The “percentage of apoptotic cells (sub-G0 fraction)” value ([3]; 0.5 μM) was 27±3%, the “percentage of apoptotic cells (sub-G0 fraction)” value ([3]; 1.0 μM) was 43±2% and the “percentage of apoptotic cells” value ([3]; HL-60, flow cytometry, co-administration of C-VAD-FMK and JS-K, p=0.44 vs untreated) was 2.65+/−0.28%. The “time of peak NO levels (nitrate and nitrite)” value ([4]; 10 μM, HL-60 cells in serum-free PBS) was 24 h, the “extent of NO release versus cell number” value ([4]; 20 μM, nitrate+nitrite in supernatants 24 hours post-addition) was “positively correlated with the cell number” and the “activation of JS-K and NO release by supernatants from HL-60 cells” value ([4]; cell supernatants only) was “did not induce activation of JS-K and NO release”. The reversibility of vasoactivity ([5]; Hb and ODQ added) was “reversible in the presence of a NO scavenger and a specific inhibitor of the NO-sGC-cGMP pathway”, the “concentration at which vasorelaxation reached a maximum” value ([5]; rings precontracted with phenylephine) was 100 nM and the “colonies from cultured bone marrow in human hematopoietic cell-selective semi-solid medium” value ([6]; 1 μmol/kg intravenous) was “few if any colonies of cancerous cells”. The “leukemic cell engraftment (anti-CD15 flow cytometry)” value [6, 7] was “decreased leukemic cell engraftment in the bone marrow and liver”, the “number and size of enlarged abdominal lymph nodes” value [6, 7] was “smaller” and the “treated mice with almost no evidence of disease” value ([6]; three to four weeks after inoculation) was “Two of the five”.
